Data published in US20100152188A1, “Novel Heterocyclic Compounds” (priority 2005, published 2010).
Where two headings read alike, the source gives them in different places.

Legend:
Type in all cases: cell-based
HCT116 = experiment: Anti-cancer screen (MTT), HCT116; settings: Homo sapiens, HCT-116, 48 hours with compound, tested at 0.01-100 µM
Experimental: (§1) Experimental drugs are screened for anti-cancer activity in three cell lines for their GI50, TGI and LC50 values (using five concentrations for each compound). The cell lines are maintained in DMEM containing 10% fetal bovine serum. 96 well micro titer plates are inoculated with cells in 100 µL for 24 hours at 37° C., 5% CO2, 95% air and 100% relative humidity. 5000 HCT 116 cells/well, 5000 NCIH 460 cells/well and 5000 U251 cells/well are plated. A separate plate with these cell lines is also inoculated to determine cell viability before the addition of the compounds (T0).
(§2) Following 24-hour incubation, experimental drugs are added to the 96 well plates. Each plate contains one of the above cell lines and the following in triplicate: five different concentrations (0.01, 0.1, 1, 10 and 100 µM) of four different compounds, appropriate dilutions of a cytotoxic standard and control (untreated) wells. Compounds are dissolved in DMSO to make 20 mM stock solutions on the day of drug addition and frozen at −20° C. Serial dilutions of these 20 mM stock solutions are made in complete growth medium such that 100 µL of these drug solutions in medium, of final concentrations equaling 0.01, 0.1, 1, 10 and 100 µM can be added to the cells in triplicate. Standard drugs whose anti-cancer activity has been well documented and which are regularly used are doxorubicin and SAHA.
(§3) For T0 measurement, 24 hours after seeding the cells, 10 µL of 3-(4,5-Dimethyl-2-thiazolyl)-2,5-diphenyl-2H-tetrazolium (MTT) solution per well is added and incubation carried out for 3 hours at 37° C., 5% CO2, 95% air and 100% relative humidity, protected from light. Cells incubated with compounds for 48 hours are treated similarly except with the addition of 20 µl MTT solution per well and a subsequent incubation under the same conditions. After 3 hours of MTT incubation, well contents are aspirated carefully followed by addition of 150 µL DMSO per well. Plates are agitated to ensure solution of the formazan crystals in DMSO and absorbance read at 570 nm.
(§4) Percent growth is calculated for each compound's concentration relative to the control and zero measurement wells (T0; viability right before compound addition). If a test well's O.D. value is greater than the T0 measurement for that cell line
(§5) %Growth=(test−zero)/(control−zero)×100
(§6) If a test well's O.D. value is lower than the T0 measurement for that cell line, then,
(§7) %Growth=(test−zero)/zero×100

MDAMB-231/U 251 = experiment: Anti-cancer screen (MTT), MDAMB-231/U 251; settings: for CC50: read-out: MDAMB-231/U 251 LC50
Experimental: as §1, §2, §3, §4, §5, §6, §7

[1] = system: NCIH460, HCT116, MDAMB-231/U 251; experiment: Anti-cancer screen, mean GI50 over the cell lines; settings: in µM
Experimental: as §1, §2, §3, §4

NCIH460 = experiment: Anti-cancer screen (MTT), NCIH460; settings: Homo sapiens, NCI-H460, 48 hours with compound, tested at 0.01-100 µM
Experimental: as §1, §2, §3, §4, §5, §6, §7

[2] = 48 hours with compound, MTT, tested at 0.01-100 µM

Compound	GI50 (HCT116)	IC (TGI) (HCT116)	LC50 (concentration giving 50% net cell kill relative to T0) (HCT116)	CC50 (MDAMB-231/U 251; 48 h)	GI50 (MDAMB-231/U 251; [2])	IC (TGI) (MDAMB-231/U 251; [2])	Mean GI50 [1]	GI50 (NCIH460)	IC (TGI) (NCIH460)	LC50 (NCIH460)	CC50 (HCT116; read-out: HCT116 LC50)	CC50 (MDAMB-231/U 251; [2])
O=C(NCc1ccc(C(=O)NO)cc1)OCc1c(F)cc(F)cc1F [Example 38, 2,4,6-Trifluorobenzyl{4-[(hydroxyamino)carbonyl]benzyl}carbamate]	5 µM	20 µM	65 µM	68 µM	0.5 µM	8 µM	9.2	22 µM	52 µM	82 µM		
O=C(NCc1ccc(C(=O)NO)cc1)OCCSc1nc2ccccc2s1 [Example 39, 2-(1,3-Benzothiazol-2-ylthio)ethyl{4-[(hydroxyamino)carbonyl]benzyl}carbamate]	5.5 µM	10 µM	62 µM	65 µM	0.4 µM	5 µM	7.3	16 µM	54 µM	82 µM		
CNC(=O)c1ccc(CNC(=O)OCc2nc3ccccc3[nH]2)cc1 [Example 41, 1H-Benzimidazol-2-ylmethyl{4-[(methylamino)carbonyl]benzyl}carbamate]	58 µM	> 100 µM	> 100 µM	> 100 µM	9 µM	> 100 µM	24.3	6 µM	> 100 µM	> 100 µM		
CNC(=O)c1ccc(CNC(=O)OCC2COc3ccccc3O2)cc1 (stereo not shown) [Example 42, 2,3-Dihydro-1,4-benzodioxin-2-ylmethyl{4-[(methylamino)carbonyl]benzyl}carbamate]	> 100 µM	> 100 µM	> 100 µM	> 100 µM	0.7 µM	> 100 µM	>100	> 100 µM	> 100 µM	> 100 µM		
CONC(=O)c1ccc(CNC(=O)OCc2c(F)c(F)c(F)c(F)c2F)cc1 [Example 44, Pentafluorobenzyl(4-{[methoxyamino]carbonyl}benzyl)carbamate]	21 µM	> 100 µM	> 100 µM	> 100 µM	5 µM	9 µM	22.67	42 µM	> 100 µM	> 100 µM		
O=C(NCc1ccc(C(=O)Nc2nnc(C3CC3)s2)cc1)OCc1c(F)c(F)c(F)c(F)c1F [Example 56, Pentafluorobenzyl(4-{[(5-cyclopropyl-1,3,4-thiadiazol-2-yl)amino]carbonyl}benzyl)carbamate]	0.5 µM	> 100 µM	> 100 µM	65 µM	0.8 µM	7 µM	0.5	0.3 µM	0.8 µM	> 100 µM		
O=C(NCc1ccc(C(=O)NCCO)cc1)OCc1cccs1 [Example 61, 2-Thienylmethyl(4-{[(2-hydroxyethyl)amino]carbonyl}benzyl)carbamate]	> 100 µM	> 100 µM	> 100 µM	> 100 µM	65 µM	> 100 µM	>100	> 100 µM	> 100 µM	> 100 µM		
O=C(NCc1ccc(C(=O)N2CCN(Cc3ccc4c(c3)OCO4)CC2)cc1)OCc1c(F)cc(F)cc1F [Example 62, 2,4,6-Trifluorobenzyl(4-{[4-(1,3-benzodioxol-5-ylmethyl)piperazin-1-yl]carbonyl}benzyl)carbamate]	3 µM	> 100 µM	> 100 µM	> 100 µM	2 µM	10 µM	1.7	0.1 µM	8.5 µM	> 100 µM		
CC(=O)N(O)C(=O)Cc1csc(NC(=O)OCc2cc(Br)cs2)n1 [Example 79, (4-Bromo-2-thienyl)methyl(4-{2-[acetyl(hydroxy)amino]-2-oxoethyl}-1,3-thiazol-2-yl)carbamate]	30 µM	65 µM			0.4 µM	52 µM	20.1	30 µM	74 µM	> 100 µM	95 µM	100 µM
O=C(CCCNC(=O)Cc1csc(NC(=O)OCc2cccnc2)n1)NO [Example 88, Pyridin-3-ylmethyl[4-(2-{[4-(hydroxyamino)-4-oxobutyl]amino}-2-oxoethyl)-1,3-thiazol-2-yl]carbamate]	> 100 µM	> 100 µM	> 100 µM	> 100 µM	6 µM	> 100 µM	>100	> 100 µM	> 100 µM	> 100 µM		
O=C(CCCNC(=O)Cc1csc(NC(=O)OCc2c(F)c(F)c(F)c(F)c2F)n1)NO [Example 92, Pentafluorobenzyl[4-(2-{[4-(hydroxyamino)-4-oxobutyl]amino}-2-oxoethyl)-1,3-thiazol-2-yl]carbamate]	> 100 µM	> 100 µM	> 100 µM	> 100 µM	30 µM	50 µM	>100	> 100 µM	> 100 µM	> 100 µM		
O=C(CCCCCNC(=O)Cc1csc(NC(=O)OCc2c(F)c(F)c(F)c(F)c2F)n1)NO [Example 94, Pentafluorobenzyl[4-(2-{[6-(hydroxyamino)-6-oxohexyl]amino}-2-oxoethyl)-1,3-thiazol-2-yl]carbamate]	23 µM	62 µM	84 µM	84 µM	19 µM	50 µM	25.66	35 µM	67 µM	> 100 µM		
O=C(CCCCCNC(=O)c1ccc(CNC(=O)OCc2cccs2)cc1)Nc1nnc(C2CC2)s1 [Example 103]	40 µM	> 100 µM	> 100 µM	85 µM	0.4 µM	18 µM	33.5	60 µM	> 100 µM	> 100 µM		
